Experimental data taken from ChEMBL document CHEMBL2177026, “Acyl guanidine inhibitors of β-secretase (BACE-1): optimization of a micromolar hit to a nanomolar lead via iterative solid- and solution-phase library synthesis” (J Med Chem, 2012).

Experiments:
Format in all cases: cell-based
Beta-secretase 1 [1] = molecular target: T1, Beta-secretase 1 (Homo sapiens, UniProt P56817); test: Ratio of IC50 for BACE1 in HEK293 cells expressing APP 695 Swedish mutant to Ki for BACE1
Beta-secretase 1 [2] = molecular target: T1, Beta-secretase 1; test: Inhibition of BACE1 in human HEK293 cells expressing APP 695 Swedish mutant assessed as inhibition of amyloid beta (1 to 40) production after overnight incubation by ELISA
Beta-secretase 1 [3] = molecular target: T1, Beta-secretase 1; test: Displacement of [3H]BMS-599240 from BACE1 expressed in HEK293 cells
Beta-secretase 1 [4] = molecular target: T1, Beta-secretase 1; test: Inhibition of BACE1 in human KBV1 cells expressing APP 751 Swedish mutant assessed as inhibition of amyloid beta (1 to 40) production after overnight incubation by ELISA in absence of tariquidar
Beta-secretase 1 [5] = molecular target: T1, Beta-secretase 1; test: Inhibition of BACE1 in human KBV1 cells expressing APP 751 Swedish mutant assessed as inhibition of amyloid beta (1 to 40) production after overnight incubation by ELISA in presence of tariquidar
Beta-secretase 1 [6] = molecular target: T1, Beta-secretase 1; test: Ratio of IC50 for BACE1 in human KBV1 cells expressing APP 751 Swedish mutant in absence of tariquidar to IC50 for BACE1 in human KBV1 cells expressing APP 751 Swedish mutant in presence of tariquidar

T1 sequence (P56817 whole entry): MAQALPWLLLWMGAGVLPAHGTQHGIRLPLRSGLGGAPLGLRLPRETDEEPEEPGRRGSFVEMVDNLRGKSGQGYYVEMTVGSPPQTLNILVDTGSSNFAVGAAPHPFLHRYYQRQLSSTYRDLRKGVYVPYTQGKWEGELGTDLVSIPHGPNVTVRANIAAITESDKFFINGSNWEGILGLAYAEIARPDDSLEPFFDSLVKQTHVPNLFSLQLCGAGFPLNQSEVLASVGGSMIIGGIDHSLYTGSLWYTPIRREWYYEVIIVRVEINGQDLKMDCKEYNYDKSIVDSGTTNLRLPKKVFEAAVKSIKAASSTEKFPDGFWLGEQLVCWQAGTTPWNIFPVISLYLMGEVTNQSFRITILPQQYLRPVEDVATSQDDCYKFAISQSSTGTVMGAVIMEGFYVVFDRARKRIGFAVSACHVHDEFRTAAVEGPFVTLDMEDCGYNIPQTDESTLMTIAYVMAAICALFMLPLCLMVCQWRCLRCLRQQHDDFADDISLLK

| SMILES | Ratio (Beta-secretase 1 [1]) | IC50 (Beta-secretase 1 [2]) [nM] | Ki (Beta-secretase 1 [3]) [nM] | also measured |
| --- | --- | --- | --- | --- |
| COc1ccc(-c2nsc(C)c2C(=O)/N=C(\N)NCc2cc(Cl)c(NC(=O)CNCc3ccccc3)c(Cl)c2)cc1 | 23 |  |  |  |
| COc1ccc(-c2noc(C)c2C(=O)NC(N)=NCc2cc(Cl)c(NC(=O)CSC)c(Cl)c2)cc1 |  | 2000 | 50 |  |
| COc1ccc(-c2noc(C)c2C(=O)NC(N)=NCc2cc(Cl)cc(-c3ccsc3)c2)cc1 |  |  | 1200 |  |
| COc1ccc(-c2noc(C)c2C(=O)NC(N)=NCc2cc(Cl)c(NC(=O)CS(C)(=O)=O)c(Cl)c2)cc1 |  | 1900 | 30 |  |
| Cc1onc(-c2ccccc2)c1C(=O)NC(N)=NCc1cccc2ccccc12 |  |  | 3900 |  |
| COc1ccc(-c2noc(C)c2C(=O)/N=C(\N)NCc2cc(C)c(NC(=O)C3CC3)c(Cl)c2)cc1 | 16 | 330 | 20 |  |
| COc1ccc(-c2onc(C)c2C(=O)/N=C(\N)NCc2cc(Cl)cc(Cl)c2)cc1 |  |  | 860 |  |
| Cc1onc(-c2ccc(F)cc2)c1C(=O)/N=C(\N)NCc1ccc(Cl)c(Cl)c1 |  |  | 2400 |  |
| COc1ccc(-c2noc(C)c2C(=O)/N=C(\N)NCc2cccc3ccccc23)cc1 |  |  | 1700 |  |
| COc1ccc(-c2nsc(C)c2C(=O)/N=C(\N)NCc2cc(C)c(NC(=O)CN(C)C)c(Cl)c2)cc1 | 1 |  |  |  |
| COc1ccc(-c2noc(C)c2C(=O)/N=C(\N)NCc2cc(C)c(NC(=O)CCSC)c(Cl)c2)cc1 | 21 |  |  |  |
| COc1ccc(-c2noc(C)c2C(=O)/N=C(\N)NCc2cc(Cl)cc(Cl)c2)cc1 |  | 1600 | 670 | IC50 (Beta-secretase 1 [4]): 3300 nM; IC50 (Beta-secretase 1 [5]): 3900 nM; Ratio IC50 (Beta-secretase 1 [6]): 0.8 |
| COc1ccc(-c2nsc(C)c2C(=O)/N=C(\N)NCc2cc(Cl)c(NS(C)(=O)=O)c(Cl)c2)cc1 |  |  | 280 |  |
| COc1ccc(-c2nsc(C)c2C(=O)/N=C(\N)NCc2cc(Cl)cc(Cl)c2)cc1 |  | > 5000 | 290 |  |
| COc1ccc(-c2noc(C)c2C(=O)/N=C(\N)NCc2cc(Cl)c(O)c(Cl)c2)cc1 |  |  | 480 |  |
| CCC(=O)Nc1c(C)cc(CN=C(N)NC(=O)c2c(-c3ccc(OC)cc3)noc2C)cc1Cl |  | 780 | 40 |  |
| COc1ccc(-c2noc(C)c2C(=O)/N=C(\N)NCc2cc(Cl)c(NC(=O)C3CC3)c(Cl)c2)cc1 | 32 | 1600 | 50 |  |
| Cc1onc(-c2ccccc2)c1C(=O)/N=C(\N)NCc1cc(Cl)cc(Cl)c1 |  |  | 3900 |  |
| Cc1onc(-c2ccccc2)c1C(=O)NC(N)=NCc1ccc(Cl)c(Cl)c1 |  |  | 8800 |  |
| COc1ccc(-c2noc(C)c2C(=O)/N=C(\N)NCc2cc(Cl)c(NC(=O)CN(C)C)c(Cl)c2)cc1 | 4 | 210 | 50 |  |
| COc1ccc(-c2nsc(C)c2C(=O)NC(N)=NCc2cc(Cl)c(NC(=O)CNCc3ccccc3)c(Cl)c2)cc1 |  | 140 | 6 |  |

| SMILES | Ratio (Beta-secretase 1 [1]) | IC50 (Beta-secretase 1 [2]) [nM] | Ki (Beta-secretase 1 [3]) [nM] | also measured |
| --- | --- | --- | --- | --- |
| COc1ccc(-c2noc(C)c2C(=O)/N=C(\N)NCc2cc(Cl)c(NC(C)=O)c(Cl)c2)cc1 |  | 790 | 10 |  |
| COc1ccc(-c2noc(C)c2C(=O)NC(N)=NCc2cc(Cl)c(N)c(Cl)c2)cc1 |  |  | 120 |  |
| COc1ccc(-c2nsc(C)c2C(=O)/N=C(\N)NCc2cc(Cl)c(N)c(Cl)c2)cc1 |  |  |  | Ratio IC50 (Beta-secretase 1 [6]): 1.7 |
| Cc1onc(-c2ccc(F)cc2)c1C(=O)NC(N)=NCc1cc(Cl)cc(Cl)c1 |  |  | 2200 |  |
| COc1ccc(-c2c(C(=O)/N=C(\N)NCc3cc(Cl)cc(Cl)c3)c(C)nn2C)cc1 |  |  | 4000 |  |
| COc1ccc(-c2noc(C)c2C(=O)/N=C(\N)NCc2ccccc2)cc1 |  |  | 4000 |  |
| COc1ccc(-c2noc(C)c2C(=O)/N=C(\N)NCc2cc(Cl)cc(-c3cccnc3)c2)cc1 |  |  | 1800 |  |
| COc1ccc(-c2nsc(C)c2C(=O)NC(N)=NCc2cc(C)c(NC(=O)CN(C)C)c(Cl)c2)cc1 |  | 20 | 20 |  |
| COc1ccc(-c2noc(C)c2C(=O)NC(N)=NCc2cc(C)c(NC(=O)CCSC)c(Cl)c2)cc1 |  | 640 | 30 |  |
| Cc1onc(-c2ccccc2)c1C(=O)/N=C(\N)NCc1ccccc1 |  |  | > 10000 |  |
| COc1ccc(-c2noc(C)c2C(=O)NC(N)=NCc2ccc(Cl)c(Cl)c2)cc1 |  |  | 910 |  |
| CCC/C=C/c1cc(Cl)cc(CN=C(N)NC(=O)c2c(-c3ccc(OC)cc3)noc2C)c1 |  |  | 850 |  |
| COc1ccc(-c2nsc(C)c2C(=O)/N=C(\N)NCc2cc(C)c(NC(C)=O)c(Cl)c2)cc1 | 12 |  |  |  |
| COc1ccc(-c2nsc(C)c2C(=O)NC(N)=NCc2cc(C)c(NC(=O)CNCc3ccccc3)c(Cl)c2)cc1 |  | 70 | 10 |  |
| COc1ccc(-c2nsc(C)c2C(=O)/N=C(\N)NCc2ccc3ccccc3c2)cc1 |  |  | 870 |  |
| Cc1onc(-c2ccc(F)cc2)c1C(=O)/N=C(\N)NCc1cccc2ccccc12 |  |  | 1800 |  |
| COc1ccc(-c2nsc(C)c2C(=O)/N=C(\N)NCc2cc(C)c(NC(=O)c3ccccc3)c(Cl)c2)cc1 | 13 | 430 | 30 |  |
| CCC(=O)Nc1c(C)cc(CN/C(N)=N/C(=O)c2c(-c3ccc(OC)cc3)noc2C)cc1Cl | 19 |  |  |  |
| COc1ccc(-c2nsc(C)c2C(=O)/N=C(\N)NCc2cccc3ccccc23)cc1 |  |  | 500 |  |
| COc1ccc(-c2nsc(C)c2C(=O)/N=C(\N)NCc2cc(Cl)c(NC(=O)CN3CCC3)c(Cl)c2)cc1 | 2 |  |  | Ratio IC50 (Beta-secretase 1 [6]): 23 |
| COc1ccc(-c2nsc(C)c2C(=O)/N=C(\N)NCc2cc(Cl)c(NC(=O)CN(C)C)c(Cl)c2)cc1 | 4 | 70 | 20 |  |

| SMILES | Ratio (Beta-secretase 1 [1]) | IC50 (Beta-secretase 1 [2]) [nM] | Ki (Beta-secretase 1 [3]) [nM] | also measured |
| --- | --- | --- | --- | --- |
| COc1ccc(-c2noc(C)c2C(=O)/N=C(\N)NCc2cc(C)cc(C)c2)cc1 |  |  | 280 |  |
| COc1ccc(-c2nsc(C)c2C(=O)/N=C(\N)NCc2cc(C)c(NC(=O)CNCc3ccccc3)c(Cl)c2)cc1 | 7 |  |  |  |
| COc1ccc(-c2[nH]nc(C)c2C(=O)/N=C(\N)NCc2cc(Cl)cc(Cl)c2)cc1 |  |  | 210 |  |
| COc1ccc(-c2nsc(C)c2C(=O)NC(N)=NCc2cc(Cl)c(NC(=O)CN3CCC3)c(Cl)c2)cc1 |  | 8 | 4 | IC50 (Beta-secretase 1 [4]): 180 nM; IC50 (Beta-secretase 1 [5]): 8 nM |
| CCNCC(=O)Nc1c(C)cc(CN/C(N)=N/C(=O)c2c(-c3ccc(OC)cc3)nsc2C)cc1Cl | 0.5 | 10 | 20 |  |
| Cc1onc(-c2ccc(F)cc2)c1C(=O)NC(N)=NCc1ccccc1 |  |  | > 10000 |  |
| CCNCC(=O)Nc1c(Cl)cc(CN/C(N)=N/C(=O)c2c(-c3ccc(OC)cc3)nsc2C)cc1Cl | 2 | 20 | 10 |  |
| COc1ccc(-c2nsc(C)c2C(=O)NC(N)=NCc2cc(C)c(NC(C)=O)c(Cl)c2)cc1 |  | 240 | 20 |  |
| COc1ccc(-c2nsc(C)c2C(=O)/N=C(\N)NCc2cc(Cl)c(NC(C)=O)c(Cl)c2)cc1 | 62 | 310 | 5 | IC50 (Beta-secretase 1 [4]): > 10000 nM; IC50 (Beta-secretase 1 [5]): 310 nM; Ratio IC50 (Beta-secretase 1 [6]): > 32 |
| COc1ccc(-c2nsc(C)c2C(=O)/N=C(/N)NCc2cc(Cl)c(N)c(Cl)c2)cc1 |  | 630 | 40 | IC50 (Beta-secretase 1 [4]): 1700 nM; IC50 (Beta-secretase 1 [5]): 1030 nM |
| COc1ccc(-c2noc(C)c2C(=O)/N=C(\N)NCc2cc(Cl)cc(Br)c2)cc1 |  |  | 510 |  |
| COc1ccc(-c2noc(C)c2C(=O)/N=C(\N)NCc2cc(Cl)c(NC(=O)CS(C)(=O)=O)c(Cl)c2)cc1 | 63 |  |  |  |
| COc1ccc(-c2noc(C)c2C(=O)/N=C(\N)NCc2cc(C)c(NC(=O)CN(C)C)c(Cl)c2)cc1 | 2 | 90 | 50 |  |
| COc1ccc(-c2noc(C)c2C(=O)/N=C(\N)NCc2cc(Cl)c(NC(=O)CSC)c(Cl)c2)cc1 | 40 |  |  |  |
| COc1ccc(-c2noc(C)c2C(=O)/N=C(\N)NCc2cc(C)c(NC(=O)c3ccco3)c(Cl)c2)cc1 | 23 | 1400 | 60 |  |
| CCCOc1c(Cl)cc(CN=C(N)NC(=O)c2c(-c3ccc(OC)cc3)noc2C)cc1Cl |  |  | > 5000 |  |
| COC/C=C/c1cc(Cl)cc(CN/C(N)=N/C(=O)c2c(-c3ccc(OC)cc3)noc2C)c1 |  |  | 150 |  |
| C=Cc1cc(Cl)cc(CN/C(N)=N/C(=O)c2c(-c3ccc(OC)cc3)noc2C)c1 |  |  | 430 |  |
| COc1ccc(-c2noc(C)c2C(=O)/N=C(\N)NCc2cc(Cl)cc(/C=C/CCO)c2)cc1 |  |  | 140 |  |
